We go through ten compounds from publication PMC6902879 (Journal of medicinal chemistry, 2019).

For one data set, the system named is E. coli (K-12). In words: Antibacterial activity. The format is cell-based. The settings on record: minimum inhibitory concentration, wild type E. coli (K-12).
Data set [1] relates to ydgR, fepA, ompF deletion mutants of E. coli. Format: cell-based. The settings on record: compared with wild-type E. coli.
In data set [2] the test system is esterase (bioH, yjfP, frsA, ybfF, yfbB, ypfH, yeiG or yqiA) deletion mutants of E. coli. As to the kind of experiment: Antibacterial activity against esterase deletion mutants of E. coli. The following applies: eight single esterase gene deletion mutants. The format is cell-based.
The test system of a further data set is E. coli. In words: Antibacterial activity before and after treatment with porcine liver esterase. The format is cell-based. The settings on record: [PLE] = 1 U/mL.
A short description of data set [3]: Static light scattering before and after addition of PLE. The settings on record: compound 200 μM, [PLE] = 1 U/mL, 24 h. The format is physicochemical.
For data set [4] the following is noted: E. coli (K-12) lysate 0.1 U/mL, compound 200 μM, lysate activities normalized.
Data set [5] in a line: Serum stability in human serum. The following applies: human serum (from human male AB plasma), 200 μM, 37 °C, LC-MS.
The next data set is described as follows: Water solubility. The format is physicochemical. The following applies: in words only.
Another data set relates to HS-5 cells. The settings on record: 24 h; CL, CLsu and conjugates 20 μM; Cipro, TMP, TEL 0.5 μM.

Structures are written as SMILES.

Take `O=C(O)C[C@@H](NC(=O)[C@@H](CC(=O)O)NC(=O)CCC(=O)OC[C@@H](NC(=O)C(Cl)Cl)[C@H](O)c1ccc([N+](=O)[O-])cc1)C(=O)O` [Compound 2h]: the minimum inhibitory concentration (MIC) in the data set on E. coli (K-12) is > 200 µM.
For the compound `O=C(O)CNC(=O)[C@@H](CO)NC(=O)CCC(=O)OC[C@@H](NC(=O)C(Cl)Cl)[C@H](O)c1ccc([N+](=O)[O-])cc1` [Compound 1d], the “effect of deletion of ydgR, fepA or ompF on bacterial viability under treatment” value (“effect of deletion of ydgR, fepA or ompF” for short) in data set [1] is listed as “hardly rescues the bacteria”. In addition, the “reduction of antibacterial activity by deletion of a cytoplasmic esterase” value (shortened to “reduction of antibacterial activity”) in data set [2] is recorded as ~10%. Also, in the data set with E. coli, the “change of inhibitory efficacy on addition of exogenous PLE” value (from here on “change of inhibitory efficacy”) is “hardly changes the inhibitory efficacy”. Also, the “intensity of static light scattering signal after addition of PLE” value (from here on “intensity”) in [3] was “increase drastically”. Also, the “apparent first-order rate constant of hydrolysis” value in [4] was 1.267 h⁻¹.
On to `O=C(CCC(=O)OC[C@@H](NC(=O)C(Cl)Cl)[C@H](O)c1ccc([N+](=O)[O-])cc1)NCC(=O)N[C@H](CO)C(=O)O` [Compound 1c], for which, in data set [1], the “effect of deletion of ydgR, fepA or ompF” value is “hardly rescues the bacteria”. For the same compound, in [2], the “reduction of antibacterial activity” value is given as “about 20%”. Moreover, the “change of inhibitory efficacy” value with E. coli is reported as “hardly changes the inhibitory efficacy”. For the same compound, in [3], the “intensity” value is recorded as “increase drastically”. Further, the “apparent first-order rate constant of hydrolysis” value in data set [4] was 3.763 h⁻¹. Also, the “time to complete hydrolysis” value in data set [5] is on record as ≤ 2 h.
As to `NCCCC[C@H](NC(=O)[C@H](CCCCN)NC(=O)CCC(=O)OC[C@@H](NC(=O)C(Cl)Cl)[C@H](O)c1ccc([N+](=O)[O-])cc1)C(=O)O` [Compound 2c], the “effect of deletion of ydgR, fepA or ompF” value in data set [1] is “hardly rescues the bacteria”. For the same compound, the “reduction of antibacterial activity” value in [2] was “about 20%”. For the same compound, the “change of inhibitory efficacy” value in the data set on E. coli is on record as “hardly changes the inhibitory efficacy”. In addition, in [3], the “intensity” value is recorded as “increase drastically”. For the same compound, the “apparent first-order rate constant of hydrolysis” value in data set [4] worked out at 0.310 h⁻¹.
On to `NCCCC[C@@H](NC(=O)[C@@H](CCCCN)NC(=O)CCC(=O)OC[C@@H](NC(=O)C(Cl)Cl)[C@H](O)c1ccc([N+](=O)[O-])cc1)C(=O)O` [Compound 2b], for which the “effect of deletion of ydgR, fepA or ompF” value in data set [1] is on record as “hardly rescues the bacteria”. Also, the “reduction of antibacterial activity” value in [2] is recorded as “about 20%”. In the data set on E. coli, the “change of inhibitory efficacy” value is given as “hardly changes the inhibitory efficacy”. In data set [3], the “intensity” value is recorded as “increase drastically”. Besides, the “apparent first-order rate constant of hydrolysis” value in data set [4] came out at 0.317 h⁻¹.
Take `COC(=O)CCC(=O)OC[C@@H](NC(=O)C(Cl)Cl)[C@H](O)c1ccc([N+](=O)[O-])cc1` [Compound 4b]: the MIC in the data set with E. coli (K-12) was >200 µM. Besides, in the data set “Water solubility”, the water solubility entry was “water-insoluble”.
Take `C[C@@H](NC(=O)CCC(=O)OC[C@@H](NC(=O)C(Cl)Cl)[C@H](O)c1ccc([N+](=O)[O-])cc1)C(=O)O` [Compound 4a]: the MIC with E. coli (K-12) was > 200 µM.
`CC[C@H]1OC(=O)[C@H](C)C(=O)[C@H](C)[C@@H](O[C@@H]2O[C@H](C)C[C@H](N(C)C)[C@H]2O)[C@](C)(OC)C[C@@H](C)C(=O)[C@H](C)[C@H]2N(CCCCn3cnc(-c4cccnc4)c3)C(=O)O[C@]12C` [telithromycin]: the “cytotoxicity against HS-5 cells” value in the data set on HS-5 cells is listed as “relatively low cytotoxicity”.
As for `O=C(O)CCC(=O)OC[C@@H](NC(=O)C(Cl)Cl)[C@H](O)c1ccc([N+](=O)[O-])cc1` [CLsu, chloramphenicol succinate, reference compound], the “cytotoxicity against HS-5 cells” value with HS-5 cells is “lower cytotoxicity than CL”. In addition, the “conversion to CL after 24 h” value in [5] (24 h) is recorded as “less than 15%”.
Turning to `O=C(O)CC[C@@H](NC(=O)[C@@H](CCC(=O)O)NC(=O)CCC(=O)OC[C@@H](NC(=O)C(Cl)Cl)[C@H](O)c1ccc([N+](=O)[O-])cc1)C(=O)O` [Compound 2g], the minimum inhibitory concentration (MIC) against E. coli (K-12) is > 200 µM.

The term MIC denotes the least concentration at which growth counts as inhibited.
